Test [1] relates to in vitro FOXC1+ cancer model. Conditions: concurrent treatment with Wnt signaling inhibition; Ray et al., 2015b; cited from earlier work.
The next test has as its system ER+ breast cancer. Conditions: Kornblum et al., 2018; cited from earlier work.
For test [2], the system named is TNBC. Conditions: two separate Phase II trials (Jovanovic et al., 2017; Park et al., 2018); cited from earlier work.
In the next test the test system is leukemia stem cells. Particulars: Fukushima et al., 2016; cited from earlier work.
The next test deals with GLI2. Particulars: abrogates leukemia stem cell dormancy; Sadarangani et al., 2015; cited from earlier work.
The test system of test [3] is TNBC. Conditions: Raninga et al., 2020; cited from earlier work.
The subject of another test is TGFβ1. Particulars: through a GLI2 inhibitory mechanism; Didiasova et al., 2017; cited from earlier work.
Test [4] has as its system fibroblast activation and tumor-fibroblast crosstalk. Particulars: Fujiwara et al., 2020; cited from earlier work.
Test [5] relates to cancer-associated fibroblasts. Conditions: Aboulkheyr Es et al., 2020; cited from earlier work.
Test [6] has as its system lung, liver and colon cancer. Particulars: combination; Qin et al., 2020; cited from earlier work.
Test [7] deals with CXCR4-mediated invasion and metastasis. Particulars: Pan et al., 2018; cited from earlier work.
The next test has as its system prostate cancer. Conditions: Gravina et al., 2015; cited from earlier work.
Test [8] relates to cancer stem cells in AML and glioblastoma. Particulars: Hira et al., 2020; cited from earlier work.
Another test relates to breast cancer. Particulars: Ginestier et al., 2010; cited from earlier work.
In another test the test system is gastric cancer. Conditions: Wang et al., 2016b; cited from earlier work.
Test [9] relates to HER2-positive breast cancer. Conditions: Singh et al., 2013, cited from earlier work.
Test [10] concerns breast CSC count in preoperative tumors. Conditions: Goldstein et al., 2020; cited from earlier work.
A further test has as its system TNBC cells. Particulars: cited from earlier work.
The subject of test [11] is ER and or PR-positive cells. Particulars: Wang et al., 2015; cited from earlier work.
Another test has as its system binding of SOX9 to FOXC1. Conditions: Tang et al., 2020; cited from earlier work.
The test system of test [12] is ER+LN-breast cancer patients. The test is described as follows: Adjuvant chemotherapy added to adjuvant Tamoxifen, all-cause mortality (SCAN-B dataset). Type of test: in vivo, human. Particulars: FOXC1 greater than 60th percentile or VERESCA FOXC1 IHC Score of 2; adjuvant Tamoxifen X 5 years with or without adjuvant chemotherapy. From the text: The prognostic utility of the VERESCA® FOXC1 IHC assay and the VERESCA® FOXC1Clin Criteria recurrence risk score was additionally validated in a second independent clinical trial dataset (SCAN-B) comprising 3207 breast cancer patients for whom clinical, treatment, gene expression data and outcomes data (Overall Survival) were available.
FOXC1 expression cutoff value was 60th percentile of expression of FOXC1 mRNA on qRTPCR, 60th percentile of expression of FOXC1 mRNA on RNA-Seq, or FOXC1 Score of 2 using VERESCA® FOXC1 IHC kit. FOXC1 expression less than the 60th percentile (FOXC1<60TH % ILE) by mRNA EXPRESSION or <VERESCA® FOXC1 IHC Score of 2 predicts LOW RISK and efficacy of the current standard of care which is adjuvant Tamoxifen X 5 years) in successfully reducing disease recurrence risk, and its resultant impact on all-cause mortality, without the need for additional/adjuvant chemotherapy.
The ability of the VERESCA® FOXC1Clin criteria recurrence risk score to predict a statistically significant decrease in all-cause mortality rate in the 8-year period post-diagnosis in response to having received adjuvant chemotherapy in addition to adjuvant Tamoxifen therapy was validated in SCAN-B clinical trial dataset (Odds Ratio 6.477 [Cl 2.974-14.107], p=0.0000001).

The test system of another test is TNBC patients. The test is described as follows: I-SPY2 neoadjuvant Durvalumab arm, pathologic complete response by MK167+FOXC1 predictor. Format: in vivo, human. Conditions: Durvalumab Arm: Olaparib+Paclitaxel+Durvalumab. The procedure: (§1) Methods. 41 Pre-NACT tumor biopsy MK167 and FOXC1 mRNA expression values were retrospectively obtained from TNBC patients and HER2 negative ER+ breast cancer patients who had been enrolled and treated in the I-SPY2 clinical trial (Durvalumab arm: 21, Control arm: 20) and correlated with the rate of observed pathologic complete response (pCR). The area under the curve (AUC) of each model was calculated and used to determine suitable cutoff values to maximize Negative Predictive Value (NPV) and Sensitivity for pCR prediction.
Methods. 41 Pre-NACT tumor biopsy MK167 and FOXC1 mRNA expression values were retrospectively obtained from TNBC patients who had been enrolled and treated in the I-SPY2 clinical trial (Durvalumab arm: 21, Control arm: 20) and correlated with the rate of observed pathologic complete response (pCR). The area under the curve (AUC) of each model was calculated and used to determine suitable cutoff values to maximize Negative Predictive Value (NPV) and Sensitivity for pCR prediction.

Test [13] relates to HER2 negative ER+ breast cancer patients. The test is described as above. Type of test: in vivo, human. Particulars: FIG. 16. The procedure:
as §1

On to `CC(C)C[C@H](NC(=O)[C@H](Cc1ccccc1)NC(=O)c1cnccn1)B(O)O` [Bortezomib], for which the “emergence of resistant clones / cancer stem cell escape” value in test [1] is “prevented the emergence of such resistant clones”.

Regarding `CO[C@H]1C[C@@H]2CC[C@@H](C)[C@@](O)(O2)C(=O)C(=O)N2CCCC[C@H]2C(=O)O[C@H]([C@H](C)C[C@@H]2CC[C@@H](OCCO)[C@H](OC)C2)CC(=O)[C@H](C)/C=C(\C)[C@@H](O)[C@@H](OC)C(=O)[C@H](C)C[C@H](C)/C=C/C=C/C=C/1C` [Everolimus], the progression free survival entry in the test on ER+ breast cancer is given as “prolong progression free survival”. Besides, the efficacy entry with TNBC [2] was “failed to show any demonstrable efficacy”.

Consider `CN1CC[C@@H](NC(=O)Nc2ccc(C#N)cc2)C[C@@H]1c1nc2ccccc2[nH]1` [Glasdegib], for which the “targeting of leukemia stem cells” value in the test on leukemia stem cells was “successfully target leukemia stem cells”. Also, the “downstream effect on GLI2” value in the test with GLI2 is reported as “GLI2 inhibition”.

Take `C[C@@]12OC(=O)[C@]1([C@@H](O)[C@@H]1C=CCCC1)NC(=O)[C@@H]2CCCl` [Marizomib]: in the test with TNBC [3], the “development of lung and brain metastasis” value was “significantly reduced the development of lung and brain metastasis”; the tumor growth entry is reported as “marked decline in tumor growth”.

Regarding `Cc1ccc(=O)n(-c2ccccc2)c1` [Pirfenidone], the “fibrosis / TGFβ1” value with TGFβ1 is reported as “decrease fibrosis by decreasing TGFβ1”. Also, the “fibroblast activation and tumor-fibroblast crosstalk in the TME” value in test [4] was “capable of inhibiting fibroblast activation and tumor-fibroblast crosstalk”. Moreover, the “immunosuppressive capacity of cancer-associated fibroblasts” value in test [5] was “successful in reducing immunosuppressive capacity”. Further, the “therapeutic benefit of PD1/PDL1 immune checkpoint blockade” value in test [6] was “augment the observed therapeutic benefit”.

As for `c1cc(CN2CCCNCCNCCCNCC2)ccc1CN1CCCNCCNCCCNCC1` [Plerixafor], the “CXCR4-mediated invasion and metastasis” value in test [7] is “successful in reversing the CXCR4-mediated invasion and metastasis”. For the same compound, the “incidence of bone metastasis” value with prostate cancer is “successfully reduce the incidence of bone metastasis”. For the same compound, the “mobilization of cancer stem cells from their niche” value in [8] is “mobilize cancer stem cells from their niche”.

As to `CC(C)Cc1ccc([C@@H](C)C(=O)NS(C)(=O)=O)cc1` [Repartaxin], the therapeutic efficacy entry with breast cancer and in the test with gastric cancer was “therapeutic efficacy” throughout. The “breast CSC activity” value in [9] is on record as “successfully reduced breast CSC activity”. The “therapeutic efficacy in combination” value in test [9] (combined with Lapatinib) is “enhanced therapeutic efficacy when combined with Lapatinib”. In addition, the “decrease in breast CSC count” value in [10] is “more than 20%”.

With `CN(C)C/C=C/C(=O)Nc1ccc(C(=O)Nc2cccc(Nc3ncc(Cl)c(-c4c[nH]c5ccccc45)n3)c2)cc1` [THZ1], the “sensitivity of cell proliferation” value in the test with TNBC cells (CDK7 inhibitor, Wang et al., 2015) is “selectively sensitive”. Further, the apoptotic cell death entry in the test with TNBC cells (Tang et al., 2020) is “increasing apoptotic cell death”. Also, the “effect of treatment on cells” value in [11] is “largely unaffected”. Moreover, in the test with binding of SOX9 to FOXC1, the “binding of SOX9 to FOXC1 and enhancer/SE-associated transcription factors” value is on record as “significantly disrupted”.

With `CC/C(=C(\c1ccccc1)c1ccc(OCCN(C)C)cc1)c1ccccc1` [Tamoxifen], in test [12], the “risk of death (all-cause mortality)” value is given as “greater than 24%”.

Consider Durvalumab, for which the pCR rate is listed as 0% with TNBC patients (predicted non-responders (MK167+FOXC1 mRNA)), 75% in the test with TNBC patients (predicted responders (MK167+FOXC1 mRNA)) and 15.38% in test [13] (predicted non-responders). Moreover, in test [13] (predicted responders), the “pCR I rate” value is 38.1%. The “pCR II rate” value in test [13] (predicted responders) is 62.5%.

Source of the values: US20250283178A1, “FOXC1 EXPRESSION AS A COMPLEMENTARY DIAGNOSTIC ASSAY FOR PREDICTING EFFICACY OF ONCOLOGY DRUGS AND DRUG COMBINATION REGIMENS AND METHODS FOR USE” (3N DIAGNOSTICS LTD., priority 2022, published 2025).
